# Legend:
# Gas1 and CPY maturation = assay: Protein trafficking analysis (immunoblot of reporter proteins); type: cell-based, S. cerevisiae; conditions: 10 μM, 1 hour
# Method: (§1) (A) Immunoblots of lysates prepared from S. cerevisiae treated with gepinacin showing GPI-anchor-selective impairment of protein maturation. The unprocessed (u), precursor (p), and mature (m) forms of the reporter proteins are indicated. The identity of the tagged reporter proteins (top of panel) and the antibodies used for their detection (bottom of panel) are also indicated. Treatment conditions are DMSO (0.05%), gepinacin (GPN, 10 μM) or tunicamycin (Tun, 10 μM). The same lysate was used for both blots. […] GFP expression was monitored by flow cytometry. (C) Anti-fungal susceptibility testing of strains deleted for IRE1 (activator of the UPR) or HAC1 (effector of the UPR) showing their increased sensitivity to gepinacin.
# HA-tagged GAS1 was expressed in strain BY4741 CPY-GFP (Yeast GFP collection (Huh, et al. (2003) Nature 425, 686-691) under control of its own promoter using plasmid pCM-HA-GAS1. This construct was created as previously reported except in a gateway plasmid backbone (Fujita, et al. (2006) Mol Biol Cell 17, 834-850). To assess effects on trafficking, strains were incubated for 1 hour at 30° C. with test compounds. Total cellular protein (5 μg) was separated by electrophoresis (Invitrogen 8% gels) and transferred to nitrocellulose membranes. Blots were hybridized with antibodies against HA (Covance), GFP (Roche), or CPY (Invitrogen). Sizes for the various post-translationally modified products of Gas1HA2 and CPY have been previously reported (Fujita, et al. (2006) Mol Biol Cell 17, 834-850). CPY-GFP was used to facilitate discrimination of CPY processing steps because GFP is cleaved from CPY in the yeast vacuole. The experiment, however, was also performed with untagged CPY with the same results.
# BIP level in K562 cells = assay: BIP immunoblot in mammalian cells; type: cell-based, human; conditions: 20 μM, 28 hour
# Method: Immunoblot of lysates prepared from human leukemia cells (K562) using an antibody to BIP after 28 hour exposure to tunicamycin (1 μg ml^−1), gepinacin (20 μM) or solvent vehicle (DMSO, 0.1%). Betaactin was blotted as a loading control.
# NIH 3T3 cells = assay: Co-culture of mammalian cells and C. albicans: mammalian cells; type: cell-based; conditions: 40 μM, 24 hours
# Method: (§2) For co-culture experiments, confluent layers of NIH 3T3 cells were established in 6-well plates. The following day, the medium was replaced with RPMI1640+10% FBS containing the amphotericin-resistant strain CaAmphR at […] colony forming units per ml and 40 μM gepinacin or an equivalent amount of DMSO. Co-cultures were incubated for 24 hours at 37° C. in a micro-isolator box. Images were acquired on a Nikon Eclipse TS100 microscope at 40×.
# (§3) Having determined the target of gepinacin in fungi, gepinacin's effect on the human ortholog of Gwt1, PIG-W, was examined. To determine if gepinacin remained active under mammalian cell culture conditions cultured fungi were cultured (either an amphotericin B-resistant (FIG. 3a) or fluconazole-resistant (data not shown) isolate of C. albicans) and mammalian cells together with 40 μM gepinacin. […] PIG-W (and GPI anchor biosynthesis) is not essential for mammalian cells in culture.
# Candida glabrata = assay: Antifungal susceptibility testing; type: cell-based
# Method: (§4) Sensitivity to gepinacin was determined in 96-well, flat bottom microtiter plates using a modification of the NCCLS broth microdilution protocol CLS M27-A3 and RPMI as culture medium. Fungi were inoculated at ˜10^3 cells per ml and incubated for 48 hours at 37° C. after which plates were sealed, shaken and the optical density read at 600 nm (OD600) on a Tecan Safire 2 plate reader. All samples were run in duplicate or triplicate and assays were repeated at least once. Results are expressed as fraction of growth in the absence of compound and the mean and standard deviation are plotted. For the mold A. terreus, inoculum was 10^4 cells per ml and plates were incubated at 35° C. for 48 hours in the dark. Plates were then visually scored as specified by CLSI document M38-A2 to determine the MIC50 and MIC80.
# S. cerevisiae = assay: Antifungal susceptibility testing; type: cell-based
# Method: as §4
# [1] = system: amphotericin B-resistant or fluconazole-resistant C. albicans; assay: Co-culture of mammalian cells and C. albicans: fungal proliferation; type: cell-based; conditions: 40 μM, 24 hours, serum-containing medium
# Method: as §2, §3
# Emp24-GFP = Emp24-GFP distribution (microscopy); type: cell-based, S. cerevisiae; conditions: 5 μM, overnight
# Method: (A) Anti-fungal susceptibility testing of gepinacin using suppressor strains 20-1 and 20-2. (B) The sequence of EMP24 in S. cerevisiae is shown with the location of mutations found by whole genome sequencing in the suppressor strains 20-1 and 20-2 indicated. The sequence in FIG. 4B corresponds to SEQ ID NO: 1. (C) Micrographs showing the redistribution of Emp24-GFP after overnight incubation with 5 μM gepinacin. Green fluorescence and DIC images are merged in the lower panels. Scale bar; 5 μm.
# To determine if gepinacin does indeed alter trafficking and change Emp24 distribution yeast in which GFP was fused in frame to the 3′ end of genomic EMP24 were examined.
# [2] = system: S. cerevisiae strains deleted for IRE1 or HAC1; assay: Antifungal susceptibility testing of UPR-deficient strains; type: cell-based; conditions: 48 hour
# Method: as §1
# Anti-fungal susceptibility testing of strains bearing deletion of IRE1 (activator of the UPR) or HAC1 (effector of the UPR) using either […] (A) or fluconazole (B). Growth was measured by OD600 after 48 hour exposure to serial dilutions of the compounds as indicated. Results are expressed as a fraction of the OD600 measured in the absence of gepinacin. The mean and standard deviation of triplicate determinations are shown.
structure (smiles),measurement,setting,value
COc1ccc(NC(=O)COc2cccc(OCC(C)C)c2)cc1 [gepinacin],CPY (not GPI-anchored) processing,Gas1 and CPY maturation,identical
same,Gas1 (GPI-anchored) maturation: mature versus precursor form,Gas1 and CPY maturation,inverted
same,ER function monitored by induction of BIP,BIP level in K562 cells,did not perturb ER function
same,effect on mammalian cells in co-culture,NIH 3T3 cells,no effect
same,growth inhibition,Candida glabrata,inhibited the growth
same,growth inhibition,S. cerevisiae,inhibited the growth
same,fungal proliferation in co-culture,[1],profound inhibition of proliferation
same,Emp24-GFP localisation,Emp24-GFP,"dramatically re-localized into large, bright dotlike structures"
same,change of toxicity by deletion of HAC1 or IRE1,[2],greatly increased the toxicity

# — patent publication US9505735B2, “Compounds for treating infectious diseases” (Whitehead Institute for Biomedical Research, priority 2012, dated 2016)
